{"source": "patent US20090053192A1", "about": "“TISSUE-NONSPECIFIC ALKALINE PHOSPHATASE (TNAP) ACTIVATORS AND USES THEREOF” (BURNHAM INSTITUTE FOR MEDICAL RESEARCH, priority 2007, published 2009)", "data": [{"biological_target": "T1, TNAP (Homo sapiens, UniProt P05186)", "T1 sequence (P05186 18-502 limits assumed)": "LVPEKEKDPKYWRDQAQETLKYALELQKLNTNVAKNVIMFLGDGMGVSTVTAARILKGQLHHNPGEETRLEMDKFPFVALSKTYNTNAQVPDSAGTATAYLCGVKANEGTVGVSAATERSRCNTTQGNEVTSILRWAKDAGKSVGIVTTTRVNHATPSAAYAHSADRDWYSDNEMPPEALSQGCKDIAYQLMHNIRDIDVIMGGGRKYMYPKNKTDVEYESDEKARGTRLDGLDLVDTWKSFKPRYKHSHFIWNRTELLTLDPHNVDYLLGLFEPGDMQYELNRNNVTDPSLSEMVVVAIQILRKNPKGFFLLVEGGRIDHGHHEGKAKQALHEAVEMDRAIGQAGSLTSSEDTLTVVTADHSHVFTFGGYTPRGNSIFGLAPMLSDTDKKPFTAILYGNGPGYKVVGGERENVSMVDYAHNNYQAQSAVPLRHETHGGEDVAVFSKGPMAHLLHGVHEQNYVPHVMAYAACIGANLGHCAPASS", "assay": "optimized TNAP activation assay, CAPS buffer pH 9.8, CDP-Star luminescence", "format": "biochemical", "settings": "TNAP 1/800, 25 μM CDP-Star, pH 9.8", "experimental": "(§1) The activity of TNAP (1/800) was measured in 50 mM CAPS, pH 9.8, containing 1 mM MgCl2, 20 uM ZnCl2 and varied concentrations of CDP-Star. The luminescence signal was obtained using 384-well white small-volume plates (Greiner 784075) on a PE Envision plate reader. Experimental data were analyzed using the Michaelis-Menten equation.\n(§2) The activity of TNAP (1/800) was measured in 50 mM CAPS, pH 9.8, containing 1 mM MgCl2, 20 μM ZnCl2 and 25 μM CDP-Star® in the presence of serially diluted DEA, pH adjusted to 9.8. The luminescence signal, obtained using 384-well white small-volume plate (Greiner 784075) on a PE Envision plate reader, was fitted to 4-parameter sigmoidal equation. The best-fit curve is shown as a solid line.\n(§3) The luminescent assay was further optimized to ensure its maximum sensitivity to compounds activating TNAP. […] This assay can provide a more accurate measure of phosphatase activity, as opposed to transphosphorylation, activity that might be more relevant to in vivo conditions. The previously utilized assay was performed in the presence DEA at a concentration of CDP-star equal to its Km value. However, the appropriate concentration of the components was needed for the new buffer. TNAP activity vs. its concentration was tested as a function of TNAP concentrations (FIG. 7).\n(§4) It was observed that TNAP activity was linearly dependent over an extended range of TNAP concentrations. A 1/800 concentration of TNAP was used for further work; this concentration is 1315-fold above the limit of detection of the assay. To ensure that substrate concentration is correctly adjusted in the new assay, TNAP activity was tested in the presence of varied CDP-star® concentrations (FIG. 8). It was decided to fix the concentration of CDP-star® at 25 uM (˜Km) to provide enough sensitivity even for compounds competitive with the CDP-star® substrate. In the next experiment, the activation of TNAP was tested with DEA (FIG. 9).\n(§5) 600 mM DEA (pH 9.8) was chosen as the positive control for TNAP activation screening. […]", "units": {"Maximal activation, higher activity than in the absence of DEA": "fold"}, "values": [{"compound": "OCCNCCO", "note": "[DEA, diethanolamine]", "Maximal activation, higher activity than in the absence of DEA": 9.4}]}, {"biological_target": "T1, TNAP", "assay": "optimized TNAP activation assay, CAPS buffer pH 9.8, CDP-Star luminescence", "format": "biochemical", "settings": "TNAP 1/800, 50 mM CAPS pH 9.8, Michaelis-Menten", "experimental": "as §1, §2, §3, §4, §5", "units": {"Km": "µM", "Vmax": "RLU"}, "values": [{"compound": "COC1(c2ccc(Cl)c(OP(=O)([O-])[O-])c2)OOC12C1CC3CC2CC(Cl)(C3)C1.[Na+].[Na+]", "note": "(centres unmarked) [CDP-star, Disodium 2-chloro-5-(4-methoxyspiro{1,2-dioxetane-3,2′-(5′-chloro)-ricyclo[3.3.1.13,7]decan}-4-yl)-1-phenyl phosphate]", "Km": "21.9 ± 3.4", "Vmax": "10300±408"}]}, {"biological_target": "T1, TNAP", "assay": "luminescent CDP-star-based TNAP assay, MLSMR screen (PubChem AID 518)", "settings": "Table 1", "source_text": "To address this issue, a TNAP assay was developed. This assay is based on the dephosphorylation of a CDP-star® alkaline phosphatase substrate (New England Biolabs, Inc.) designed to detect alkaline phosphatase in blotting techniques (FIG. 6). As with many chemiluminescent reactions, the dioxetane-based reaction represents a sequence of several steps. Dioxetane-phosphate is dephosphorylated by an alkaline phosphatase leading to the generation of an unstable product that decomposes to a stable product with concomitant light production. Once the steady-state of the overall reaction is achieved (in the current reaction it happens within the first 5 min), the luminescence signal output is stable over several hours. As an added bonus, the light intensity of the chemiluminescent reaction is directly proportional to the rate of the TNAP reaction; therefore, the activity of the enzyme can be reliably measured in real-time.\nIn this table, the column corresponding to TNAP (luminescence) was calculated as (100−X)/100, where X is % inhibition. In some aspects, TNAP activation fact refers to the fold increase in TNAP activity. There are two tiers of data confirmation embedded in the data.", "values": [{"compound": "O=C(CN1C(=O)CCC1=O)Nc1nc(-c2ccccn2)cs1", "note": "[drawing 29, 2-(2,5-dioxopyrrolidin-1-yl)-N-[4-(pyridine-2-yl)thiazol-2-yl]acetamide]", "TNAP Activation Factor": 2.0}]}, {"biological_target": "T1, TNAP", "assay": "luminescent CDP-star-based TNAP assay, MLSMR screen (PubChem AID 518)", "settings": "Table 2", "values": [{"compound": "Nc1[nH]nc2nc(NCc3ccccc3)c3c(c12)CCN(Cc1ccccc1)C3", "note": "[drawing 47, N^5,7-dibenzyl-6,7,8,9-tetrahydro-2H-pyrazolo[3,4-c][2,7]napythyridine-1,5-diamine]", "TNAP Activation Factor": 1.9}, {"compound": "CC(C)n1c(NCc2nc3ccccc3n2C)nc2ccccc21", "note": "[drawing 45, 1-isopropyl-N-[(1-methyl-1H-benzo[d]imidazol-2-yl)methyl]-1H-benzo[d]imidazol-2-amine]", "TNAP Activation Factor": 2.0}]}, {"biological_target": "T1, TNAP", "assay": "luminescent CDP-star-based TNAP assay, MLSMR screen (PubChem AID 518)", "settings": "Table 3", "values": [{"compound": "Oc1c(C(c2ccccn2)N2CCOCC2)ccc2cccnc12", "note": "(centres unmarked) [drawing 68, 7-[morpholino(pyridin-2-yl)methyl]quinolin-8-ol]", "TNAP Activation Factor": 1.7}, {"compound": "N=c1c2c(-c3ccccc3)c(-c3ccccc3)n(Cc3ccccc3)c2ncn1CCCn1ccnc1", "note": "[drawing 64, 3-[3-(1H-imidazol-1-yl)propyl]-7-benzyl-5,6-diphenyl-3H-pyrrolo[2,3-d]pyrimidin-4(7H)-imine]", "TNAP Activation Factor": 4.3}, {"compound": "Cc1nn2c(O)cc(C(C)(C)C)nc2c1-c1ccccc1", "note": "[drawing 67, 5-tert-butyl-2-methyl-3-phenylpyrazolo[1,5-a]pyrimidin-7-ol]", "TNAP Activation Factor": 1.8}, {"compound": "OCCCN1c2ccccc2Nc2nnc(-c3ccccc3)cc21", "note": "[drawing 70, 3-(3-phenylpyridazino[3,4-b]quinoxalin-5(10H)-yl)propan-1-ol]", "TNAP Activation Factor": 1.5}, {"compound": "O=C(CN(Cc1ccco1)C(=O)CNS(=O)(=O)c1ccc(F)cc1)NCc1ccc(F)cc1", "note": "[drawing 76, N-[2-(4-fluorobenzylamino)-2-oxoethyl]-2-(4-fluorphenylsulfonamido)-N-(furan-2-ylmethyl)acetamide]", "TNAP Activation Factor": 1.7}, {"compound": "c1nc(-c2[nH]nc3c2CCC3)n2nc(C3CCCCC3)sc12", "note": "[6-cyclohexyl-3-(2,4,5,6-tetrahydrocyclopenta[c]pyrazol-3-yl)-[1,2,4]triazole[3,4-b][1,3,4]thiadiazole]", "TNAP Activation Factor": 1.5}, {"compound": "COc1ccc(CCNC(=O)c2cc(-c3ccccc3O)[nH]n2)cc1OC", "note": "[drawing 75, N-(3,4-dimethoxyphenethyl)-5-(2-hydroxyphenyl)-1H-pyrazole-3-carboxamide]", "TNAP Activation Factor": 1.9}, {"compound": "Cc1cc(C2N=C(N)Nc3nc4ccccc4n32)c(C)n1-c1ccccc1Cl", "note": "(centres unmarked) [drawing 66]", "TNAP Activation Factor": 2.2}, {"compound": "OCCN1CCOCCN(CCO)CCN(CCO)CC1", "note": "[drawing 74, 2,2′,2″-(1-oxa-4,7,10-triazacyclododecane-4,7,10-triyl)ethanol]", "TNAP Activation Factor": 1.9}, {"compound": "OCCN(CCO)c1nc(N2CCCCC2)c2nc(N(CCO)CCO)nc(N3CCCCC3)c2n1", "note": "[2,2′,2″,2′″-[4,8-di(piperidin-1-yl)pyrimido[5,4-d]pyrimidine-2,6-diyl]bis(azanetriyl)tetraethanol]", "TNAP Activation Factor": 1.6}, {"compound": "NC1=NC(c2cn(-c3ccccc3)nc2-c2cccs2)n2c(nc3ccccc32)N1", "note": "(centres unmarked) [drawing 72]", "TNAP Activation Factor": 1.5}]}, {"biological_target": "T1, TNAP", "assay": "luminescent CDP-star-based TNAP assay, MLSMR screen (PubChem AID 518)", "settings": "calculated as (100-X)/100, where X is % inhibition; luminescence", "values": [{"compound": "OCCCN1c2ccccc2Nc2nnc(-c3ccccc3)cc21", "note": "[Compound 25]", "TNAP Activation Factor": 1.5}, {"compound": "COc1ccc(CCNC(=O)c2cc(-c3ccccc3O)[nH]n2)cc1OC", "note": "[Compound 12]", "TNAP Activation Factor": 1.9}, {"compound": "NC1=NC2(CCC(c3ccccc3)CC2)n2c(nc3ccccc32)N1", "note": "(centres unmarked) [Compound 20]", "TNAP Activation Factor": 1.6}, {"compound": "N=c1c2c(-c3ccccc3)c(-c3ccccc3)n(Cc3ccccc3)c2ncn1CCCn1ccnc1", "note": "[Compound 3]", "TNAP Activation Factor": 4.3}, {"compound": "O=C(CN(Cc1ccco1)C(=O)CNS(=O)(=O)c1ccc(F)cc1)NCc1ccc(F)cc1", "note": "[Compound 16]", "TNAP Activation Factor": 1.7}, {"compound": "O=C(CN1C(=O)CCC1=O)Nc1nc(-c2ccccn2)cs1", "note": "[Compound 9]", "TNAP Activation Factor": 2.0}, {"compound": "COc1cccc(N(C(=O)c2cc[nH]n2)C2(C(=O)Nc3c(C)cccc3C)CCCCC2)c1", "note": "[Compound 23]", "TNAP Activation Factor": 1.6}, {"compound": "NC1=NC(c2cn(-c3ccccc3)nc2-c2cccs2)n2c(nc3ccccc32)N1", "note": "(centres unmarked) [Compound 28]", "TNAP Activation Factor": 1.5}, {"compound": "Clc1ccc(COC(Cn2ccnc2)c2ccc(Cl)cc2Cl)c(Cl)c1", "note": "(centres unmarked) [Compound 17]", "TNAP Activation Factor": 1.7}, {"compound": "Oc1c(C(c2ccccn2)N2CCOCC2)ccc2cccnc12", "note": "(centres unmarked) [Compound 15]", "TNAP Activation Factor": 1.7}, {"compound": "OCCN(CCO)c1cc2c(N3CCCCC3)nc(N(CCO)CCO)nc2c(N2CCCCC2)n1", "note": "[Compound 18]", "TNAP Activation Factor": 1.6}, {"compound": "C1CCC(c2nn3c(-c4[nH]nc5c4CCC5)nnc3s2)CC1", "note": "[Compound 26]", "TNAP Activation Factor": 1.5}, {"compound": "O=C(Nc1cccc(OC(F)(F)F)c1)c1ccc(Br)o1", "note": "[Compound 19]", "TNAP Activation Factor": 1.6}, {"compound": "Cc1nn2c(O)cc(C(C)(C)C)nc2c1-c1ccccc1", "note": "[Compound 13]", "TNAP Activation Factor": 1.8}, {"compound": "OCCN1CCOCCN(CCO)CCN(CCO)CC1", "note": "[Compound 10]", "TNAP Activation Factor": 1.9}, {"compound": "Cc1cc(C2N=C(N)Nc3nc4ccccc4n32)c(C)n1-c1ccccc1Cl", "note": "(centres unmarked) [Compound 6]", "TNAP Activation Factor": 2.2}, {"compound": "Nc1[nH]nc2nc(NCc3ccccc3)c3c(c12)CCN(Cc1ccccc1)C3", "note": "[Compound 11]", "TNAP Activation Factor": 1.9}, {"compound": "CCN(CC)c1ccc2cc(-c3nc4ccccc4n3C)c(=O)oc2c1", "note": "[Compound 4]", "TNAP Activation Factor": 2.8}, {"compound": "CC(C)n1c(NCc2nc3ccccc3n2C)nc2ccccc21", "note": "[Compound 7]", "TNAP Activation Factor": 2.0}, {"compound": "O=S(=O)(CCc1ncc(-c2ccccc2)o1)c1ccc2ccccc2c1", "note": "[Compound 21]", "TNAP Activation Factor": 1.6}, {"compound": "CCc1ccc(-c2nc(CN3CCC(C(=O)NCCN(CC)c4ccccc4)CC3)c(C)o2)cc1", "note": "[Compound 22]", "TNAP Activation Factor": 1.6}]}]}
